What all share (type): cell-based
Assay [1] concerns human melanoma YUMAC cells. As to the kind of experiment: Cell proliferation, YUMAC (Example 4). The conditions noted are these: compound in 2-hydroxypropyl-β-cyclodextrin. The method, then:
(§1) Human ovary cancer A2780 cells lines were seeded at a density of 5000 cells/well, human melanoma A375 cells were plated at a density of 2,500 cells/well, human colon carcinoma HCT15 cells were plated at a density of 3,000 cells/well, human prostate carcinoma PC3 cells were plated at a density of 1,500 cells/well, human breast carcinoma MCF7 cells were plated at a density of 5,000 cells/well, human breast carcinoma MDA MB 468 cells were plated at a density of 6,000 cells/well, human myeloma U266, RPMI8226 and CAG cells were plated at a density of 10,000 cells/well. All cells were plated in 96-well plates in 90 μl growth medium containing 10% FCS, 100 units/ml penicillin and 100 μg/ml streptomycin. Compound 3 was added a day later in […] of 1% DMSO in DDW to obtain final concentrations of 0, 0.1, 0.3, 1, 3, and 10 μM. The final concentration of DMSO (0.1% DMSO) was kept constant in all samples. Following exposure of the cells to compound 3 for 72 hours at 37° C., adhered cells were fixed in 0.5% gluteraldehyde in medium for 10 min, washed three times with DDW, once with 0.1M sodium borate buffer pH 8.5 and stained with 1% methylene blue dissolved in 0.1M borate buffer solution for 60 min. Excess dye was washed out and cell-bound dye was eluted with 200 μl/well of 0.1M HCl. The optical density values were read at 630 nm in ELISA plate reader. Non-adhered cells were exposed to WST-1 reagent for 5 hours following 72 hours treatment with the inhibitors, and optical density values were read at 630 nm in ELISA plate reader. The data was analyzed in Microsoft Excel, using the vehicle control as 100% proliferation. The assays were performed in triplicates. The values of IC50 were derived from the dose-dependent growth curves obtained.
(§2) Cell proliferation assay was performed as described in Example 2. The following cell line were plated in 96-well plates in 90 μl growth medium containing 10% FCS, 100 units/ml penicillin and 100 μg/ml streptomycin: human ovary cancer A2780 cells (4500 cells/well), human melanoma A375 (1500 cells/well) and YUMAC (2500 cells/well) cells, human colon carcinoma HCT15 (3000 cells/well) and HCT116 (2000 cells/well) cells, human prostate carcinoma PC3 (3000 cells/well), PC3MM2 (3500 cells/well) and DU145 (300 cells/well) cells, human hepatocarcinoma HepG2 (3000 cells/well), human Ewing sarcoma SK-ES-1 (4,500 cells/well), human glioblastoma U138MG (2,000 cells/well), human breast cancer T47D (4000 cells/well) and MDA-MB-468 (6000 cells/well) cells, human small cell lung carcinoma NCI-H1975 (5000 cells/well) cells, human osteosarcoma Saos-2 (5000 cells/well) cells, human pancreatic cancer ASPC (2500 cells/well) cells, human bladder carcinoma T24P (1000 cells/well) cells, human gastric cancer NCI-N87 (5000 cells/well) cells, human lymphoma KARPAS (5,000 cells/well) cells, human leukemia K562 (5,000 cells/well) cells and human multiple myeloma MM1S (10,000 cells/well), U266 (10,000 cells/well) and CAG (5,000 cells/well). Compounds 2-5 and 7-8 were added a day later in 10 μl of 0.7% 2-hydroxypropyl-β-cyclodextrin to obtain final concentrations of 0, 0.1, 0.3, 1, 3 and 10 μM.
(§3) Compounds 2-5 and 7-8 of the present invention were tested for their inhibitory potential in cell proliferation assay. […]

Assay [2] has as its system human colon carcinoma HCT116 cells. The assay is described as follows: Cell proliferation, HCT116 (Example 4). The note with it: HCT-116, HCT116, colon cancer, compound in 2-hydroxypropyl-β-cyclodextrin. The protocol:
as §1, §2, §3

Assay [3] concerns human prostate carcinoma DU145 cells. The assay is described as follows: Cell proliferation, DU145 (Example 4). The note with it: DU-145, DU145, prostate cancer, compound in 2-hydroxypropyl-β-cyclodextrin. The method, then:
as §1
(§4) Cell proliferation assay was performed as described in Example 2. […]

For assay [4], the system named is human Ewing sarcoma SK-ES-1 cells. As to the kind of experiment: Cell proliferation, SK-ES-1 (Example 4). The note with it: SK-ES1, SK-ES-1, Ewing sarcoma, compound in 2-hydroxypropyl-β-cyclodextrin. The method, then:
as §1, §4

For assay [5], the system named is human glioblastoma U138MG cells. As to the kind of experiment: Cell proliferation, U138MG (Example 4). The note with it: U138-MG, compound in 2-hydroxypropyl-β-cyclodextrin. The method, then: as §1, §4
For another assay, the system named is human NCI-H1975 cells. The assay is described as follows: Cell proliferation, NCI-H1975 (Example 4). The conditions noted are these: NCI-H1975, SCLC, compound in 2-hydroxypropyl-β-cyclodextrin. The protocol:
as §1, §4

For assay [6], the system named is human osteosarcoma Saos-2 cells. As to the kind of experiment: Cell proliferation, Saos-2 (Example 4). The conditions noted are these: Saos-2, osteosarcoma, compound in 2-hydroxypropyl-β-cyclodextrin. The method, then: as §1, §4
The subject of assay [7] is human pancreatic cancer ASPC cells. The assay is described as follows: Cell proliferation, ASPC (Example 4). The conditions noted are these: compound in 2-hydroxypropyl-β-cyclodextrin. The protocol: as §1, §2, §3
The test system of assay [8] is human bladder carcinoma T24P cells. The assay is described as follows: Cell proliferation, T24P (Example 4). The conditions noted are these: compound in 2-hydroxypropyl-β-cyclodextrin. The method, then:
as §1, §4

The test system of assay [9] is human gastric cancer NCI-N87 cells. The assay is described as follows: Cell proliferation, NCI-N87 (Example 4). The note with it: compound in 2-hydroxypropyl-β-cyclodextrin. The method, then: as §1, §4
Assay [10] deals with human lymphoma KARPAS cells. As to the kind of experiment: Cell proliferation, KARPAS (Example 4). The note with it: compound in 2-hydroxypropyl-β-cyclodextrin. The protocol: as §1, §4
For assay [11], the system named is human leukemia K562 cells. The assay is described as follows: Cell proliferation, K562 (Example 4). The note with it: compound in 2-hydroxypropyl-β-cyclodextrin. The method, then:
as §1, §2, §3

The subject of assay [12] is human multiple myeloma CAG cells. As to the kind of experiment: Cell proliferation, CAG (Example 4). The note with it: compound in 2-hydroxypropyl-β-cyclodextrin. The method, then: as §1, §4
Assay [13] concerns human multiple myeloma MM1S cells. The assay is described as follows: Cell proliferation, MM1S (Example 4). The note with it: MM1.S, compound in 2-hydroxypropyl-β-cyclodextrin. The protocol: as §1, §2
Compounds 2-5 and 7-8 of the present invention were tested for their inhibitory potential in cell proliferation assay. Human ovary cancer A2780 cells, human melanoma A375 and YUMAC cells, human colon carcinoma HCT15 and HCT116 cells, human prostate carcinoma PC3, PC3MM2 and DU145 cells, human hepatocarcinoma HepG2 cells, human Ewing sarcoma SK-ES-1 cells, human glioblastoma U138MG cells, human breast cancer T47D and MDA-MB-468 cells, human small cell lung carcinoma NCI-H1975 cells, human osteosarcoma Saos-2 cells, human pancreatic cancer ASPC cells, human bladder cancer T24P cells, human gastric cancer cells, human lymphoma KARPAS cells, human leukemia K562 cells, and human multiple myeloma MM1S, CAG and U266 cells, were exposed to increasing concentrations of compounds 2-5 and 7-8. […]

Assay [14] concerns Human ovary cancer A2780 cells. As to the kind of experiment: Cell proliferation, A2780 (Example 4). The note with it: compound in 2-hydroxypropyl-β-cyclodextrin. The method, then:
as §1, §4

Assay [15] concerns human hepatocarcinoma HepG2 cells. The assay is described as follows: Cell proliferation, HepG2 (Example 4). The note with it: compound in 2-hydroxypropyl-β-cyclodextrin. The protocol: as §1, §4
The test system of assay [16] is human breast cancer MDA-MB-468 cells. As to the kind of experiment: Cell proliferation, MDA-MB-468 (Example 4). The conditions noted are these: MDA-MB-468, breast cancer, compound in 2-hydroxypropyl-β-cyclodextrin. The method, then:
as §1, §4

For assay [17], the system named is human prostate carcinoma PC3MM2 cells. The assay is described as follows: Cell proliferation, PC3MM2 (Example 4). The conditions noted are these: PC3MM2, prostate cancer, compound in 2-hydroxypropyl-β-cyclodextrin. The method, then:
as §1, §4

The test system of assay [18] is human breast cancer T47D cells. As to the kind of experiment: Cell proliferation, T47D (Example 4). The note with it: compound in 2-hydroxypropyl-β-cyclodextrin. The protocol:
as §1, §4

The text below walks through data of US9073880B2, “2-(2-phenylethenyl) 1,3-benzodiazepine derivatives useful for the treatment of cancer” (Yissum Research Development Company of the Hebrew …, priority 2010, dated 2015).

Each structure is given as a SMILES string.

In general, IC50 refers to the concentration that gives 50% inhibition. On to `O=c1c(O)cc2cnc(/C=C/c3cc(O)c(O)cc3Br)sc-2c1O` [Compound 7], for which the IC50 in assay [1] came out at 500 nM; in assay [2] it was 1400 nM; in [3], 2300 nM; in assay [4] it was 200 nM; in [5], 800 nM; with human NCI-H1975 cells, 2600 nM. In addition, the IC50 in assay [6] amounted to 2700 nM; in assay [7] it was 13300 nM; in assay [8], 4500 nM; in assay [9], 8400 nM; in [10], 1800 nM; in [11] it was 1800 nM. Also, the IC50 in [12] turned out to be 4900 nM; in assay [13] it was 200 nM.
For `N#C/C(=C\c1cc(O)c(O)c(I)c1)c1ncc2cc(O)c(=O)c(O)c-2s1` [Compound 2], the IC50 in [14] amounted to 600 nM; in assay [15], 2800 nM; in assay [16], 1200 nM; in assay [13], 2000 nM.
With `O=c1c(O)cc2cnc(/C=C/c3cc(O)c(O)c(I)c3)sc-2c1O` [Compound 4], the IC50 came out at 300 nM in assay [14]; 500 nM in [1]; 700 nM in assay [2]; 900 nM in assay [17]; 2000 nM in [3]; 2700 nM in assay [15]. Moreover, the IC50 in assay [4] is 200 nM; in assay [5], 300 nM; in assay [18] it was 700 nM; in [16], 2200 nM; with human NCI-H1975 cells, 1100 nM; in [6], 2000 nM. Moreover, the IC50 was 18500 nM in [7]; 3200 nM in [8]; 4800 nM in assay [9]; 1500 nM in [10]; 900 nM in assay [11]; 3000 nM in assay [12]. The compound further registered an IC50 in [13] of 700 nM.
`O=c1c(O)c2sc(/C=C/c3cc(O)c(O)c(Br)c3)ncc-2c(Br)c1O` [Compound 8]: the IC50 in assay [1] worked out at 500 nM; in [2], 800 nM; in [7], 17700 nM; in assay [11] it was 800 nM; in assay [13], 500 nM.
